Reference: the supplement of paper PMC10307832

How the values were obtained:
Assay in all cases: relative viability (nuclei count vs DMSO), 5 days (fraction); higher = more cells survive
NCI-H2023 = system: NCI-H2023
In short: (§1)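 Dosing by pin tool came one day after lung cancer cell lines were seeded in 1536-well plates, using either one drug or a fixed anchor-drug dose plus five library-drug doses (not always all listed) in √10 steps. After 5 days, nuclei were counted on 4× images. Relative viability is treated-well nuclei count divided by vehicle-well nuclei count, and values are medians of duplicate plates.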

H3255 = system: H3255
In short: as §1

SK-LU-1 = system: SK-LU-1
In short: as §1

LXF-289 = system: LXF-289
In short: as §1

NCI-H2342 = system: NCI-H2342
In short: as §1

EMC-BAC-2 = system: EMC-BAC-2
In short: as §1

HOP-62 = system: HOP-62
In short: as §1

EPLC-272H = system: EPLC-272H
In short: as §1

NCI-H1993 = system: NCI-H1993
In short: as §1

NCI-H647 = system: NCI-H647
In short: as §1

SW 1573 = system: SW 1573
In short: as §1

PC-14 = system: PC-14
In short: as §1

NCI-H1650 = system: NCI-H1650
In short: as §1

NCI-H727 = system: NCI-H727
In short: as §1

NCI-H2126 = system: NCI-H2126
In short: as §1

LCLC-97TM1 = system: LCLC-97TM1
In short: as §1

NCI-H2347 = system: NCI-H2347
In short: as §1

NCI-H2009 = system: NCI-H2009
In short: as §1

NCI-H661 = system: NCI-H661
In short: as §1

NCI-H2085 = system: NCI-H2085
In short: as §1

NCI-H322M = system: NCI-H322M
In short: as §1

NCI-H1915 = system: NCI-H1915
In short: as §1

Compound: Oc1nc(-c2ccc(C(F)(F)F)cc2)nc2c1CSCC2 [XAV939] + Cc1cc(Nc2cc(N3CCN(C)CC3)nc(Sc3ccc(NC(=O)C4CC4)cc3)n2)n[nH]1 [Tozasertib] (partner 0.1 µM)
- relative viability (NCI-H2023; first compound 0.08 µM): 0.391
- relative viability (NCI-H2023; first compound 0.253 µM): 0.334
- relative viability (NCI-H2023; first compound 0.8 µM): 0.278
- relative viability (NCI-H2023; first compound 2.53 µM): 0.226
- relative viability (H3255; first compound 0.08 µM): 0.699
- relative viability (H3255; first compound 0.253 µM): 0.597
- relative viability (H3255; first compound 0.8 µM): 0.597
- relative viability (H3255; first compound 2.53 µM): 0.544
- relative viability (SK-LU-1; first compound 0.08 µM): 0.35
- relative viability (SK-LU-1; first compound 0.253 µM): 0.267
- relative viability (SK-LU-1; first compound 0.8 µM): 0.322
- relative viability (SK-LU-1; first compound 2.53 µM): 0.279
- relative viability (LXF-289; first compound 0.08 µM): 0.215
- relative viability (LXF-289; first compound 0.253 µM): 0.187
- relative viability (LXF-289; first compound 0.8 µM): 0.161
- relative viability (LXF-289; first compound 2.53 µM): 0.111
- relative viability (NCI-H2342; first compound 0.08 µM): 0.592
- relative viability (NCI-H2342; first compound 0.253 µM): 0.511
- relative viability (NCI-H2342; first compound 0.8 µM): 0.419
- relative viability (NCI-H2342; first compound 2.53 µM): 0.301
- relative viability (EMC-BAC-2; first compound 0.08 µM): 0.272
- relative viability (EMC-BAC-2; first compound 0.253 µM): 0.283
- relative viability (EMC-BAC-2; first compound 0.8 µM): 0.259
- relative viability (EMC-BAC-2; first compound 2.53 µM): 0.201
- relative viability (HOP-62; first compound 0.08 µM): 0.372
- relative viability (HOP-62; first compound 0.253 µM): 0.339
- relative viability (HOP-62; first compound 0.8 µM): 0.338
- relative viability (HOP-62; first compound 2.53 µM): 0.329
- relative viability (EPLC-272H; first compound 0.08 µM): 0.409
- relative viability (EPLC-272H; first compound 0.253 µM): 0.287
- relative viability (EPLC-272H; first compound 0.8 µM): 0.22
- relative viability (EPLC-272H; first compound 2.53 µM): 0.255
- relative viability (NCI-H1993; first compound 0.08 µM): 0.559
- relative viability (NCI-H1993; first compound 0.253 µM): 0.605
- relative viability (NCI-H1993; first compound 0.8 µM): 0.551
- relative viability (NCI-H1993; first compound 2.53 µM): 0.59
- relative viability (NCI-H647; first compound 0.08 µM): 0.288
- relative viability (NCI-H647; first compound 0.253 µM): 0.217
- relative viability (NCI-H647; first compound 0.8 µM): 0.262
- relative viability (NCI-H647; first compound 2.53 µM): 0.146
- relative viability (SW 1573; first compound 0.08 µM): 0.174
- relative viability (SW 1573; first compound 0.253 µM): 0.139
- relative viability (SW 1573; first compound 0.8 µM): 0.211
- relative viability (SW 1573; first compound 2.53 µM): 0.213
- relative viability (PC-14; first compound 0.08 µM): 0.673
- relative viability (PC-14; first compound 0.253 µM): 0.551
- relative viability (PC-14; first compound 0.8 µM): 0.685
- relative viability (PC-14; first compound 2.53 µM): 0.544
- relative viability (NCI-H1650; first compound 0.08 µM): 0.471
- relative viability (NCI-H1650; first compound 0.253 µM): 0.36
- relative viability (NCI-H1650; first compound 0.8 µM): 0.406
- relative viability (NCI-H1650; first compound 2.53 µM): 0.332
- relative viability (NCI-H727; first compound 0.08 µM): 0.69
- relative viability (NCI-H727; first compound 0.253 µM): 0.543
- relative viability (NCI-H727; first compound 0.8 µM): 0.769
- relative viability (NCI-H727; first compound 2.53 µM): 0.62
- relative viability (NCI-H2126; first compound 0.08 µM): 0.791
- relative viability (NCI-H2126; first compound 0.253 µM): 0.774
- relative viability (NCI-H2126; first compound 0.8 µM): 0.778
- relative viability (NCI-H2126; first compound 2.53 µM): 0.651
- relative viability (LCLC-97TM1; first compound 0.08 µM): 0.344
- relative viability (LCLC-97TM1; first compound 0.253 µM): 0.238
- relative viability (LCLC-97TM1; first compound 0.8 µM): 0.186
- relative viability (LCLC-97TM1; first compound 2.53 µM): 0.352
- relative viability (NCI-H2347; first compound 0.08 µM): 0.613
- relative viability (NCI-H2347; first compound 2.53 µM): 0.388
- relative viability (NCI-H2009; first compound 0.08 µM): 0.84
- relative viability (NCI-H2009; first compound 0.253 µM): 0.66
- relative viability (NCI-H2009; first compound 0.8 µM): 0.713
- relative viability (NCI-H2009; first compound 2.53 µM): 0.647
- relative viability (NCI-H661; first compound 0.08 µM): 0.364
- relative viability (NCI-H661; first compound 0.253 µM): 0.346
- relative viability (NCI-H661; first compound 0.8 µM): 0.365
- relative viability (NCI-H661; first compound 2.53 µM): 0.339
- relative viability (NCI-H2085; first compound 0.08 µM): 0.774
- relative viability (NCI-H2085; first compound 0.253 µM): 0.856
- relative viability (NCI-H2085; first compound 0.8 µM): 0.651
- relative viability (NCI-H2085; first compound 2.53 µM): 0.688
- relative viability (NCI-H322M; first compound 0.08 µM): 0.553
- relative viability (NCI-H322M; first compound 0.253 µM): 0.432
- relative viability (NCI-H322M; first compound 0.8 µM): 0.431
- relative viability (NCI-H322M; first compound 2.53 µM): 0.4
- relative viability (NCI-H1915; first compound 0.08 µM): 0.5
- relative viability (NCI-H1915; first compound 0.253 µM): 0.444
- relative viability (NCI-H1915; first compound 0.8 µM): 0.416
- relative viability (NCI-H1915; first compound 2.53 µM): 0.43
